These results are taken from US20190367516A1 (Bayer Pharma Aktiengesellschaft, priority 2015, published 2019).

Structures are written as SMILES.

For the test, the target named is T1, human M2 receptor (Homo sapiens, UniProt P08172).
T1 sequence (P08172 1-466): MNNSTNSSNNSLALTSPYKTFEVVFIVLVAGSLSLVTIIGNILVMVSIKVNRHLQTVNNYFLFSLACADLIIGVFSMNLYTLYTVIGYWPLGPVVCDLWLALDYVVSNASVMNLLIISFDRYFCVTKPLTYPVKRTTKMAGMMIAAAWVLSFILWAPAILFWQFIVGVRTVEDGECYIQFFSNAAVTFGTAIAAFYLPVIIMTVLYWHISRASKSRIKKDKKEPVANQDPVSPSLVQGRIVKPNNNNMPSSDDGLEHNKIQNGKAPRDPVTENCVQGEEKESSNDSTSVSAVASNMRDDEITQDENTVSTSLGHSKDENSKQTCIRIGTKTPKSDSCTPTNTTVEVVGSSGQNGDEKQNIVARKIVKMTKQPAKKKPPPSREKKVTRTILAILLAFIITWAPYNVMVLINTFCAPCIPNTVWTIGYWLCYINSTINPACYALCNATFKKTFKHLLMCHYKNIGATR
As to conditions: Receptor activity EC50, M2-GIRK1/4 activation test, acetylcholine at EC20; allosteric potency; in some cases mean values from two or more determinations.
As usually defined, the EC50 is the concentration giving half of the maximal effect. Higher therefore signals lower potency in that assay. In the case of `CC[C@@H](NC(=O)c1cn(-c2ccc(F)cc2F)c2nc(N3CCC(O)(O)C(F)C3)ccc2c1=O)C(F)(F)F` (mixture of isomers) [Example 34, 1-(2,4-Difluorophenyl)-7-[3-fluoro-4,4-dihydroxypiperidin-1-yl]-4-oxo-N-[(2R)-1,1,1-trifluorobutan-2-yl]-1,4-dihydro-1,8-naphthyridine-3-carboxamide (diastereomer mixture)], a half-maximal response (EC50) required 0.095 µM. In other words, the double-digit nanomolar range.
As for `O=C(NC1(C(F)(F)F)CCOC1)c1cn(-c2ccc(F)cc2F)c2nc(N3C[C@@H](O)CC3=O)ccc2c1=O` (mixture of isomers) [Example 238, 1-(2,4-Difluorophenyl)-7-[(4S)-4-hydroxy-2-oxopyrrolidin-1-yl]-4-oxo-N-[3-(trifluoromethyl)tetrahydrofuran-3-yl]-1,4-dihydro-1,8-naphthyridine-3-carboxamide], the EC50 turned out to be 1.64 µM.
The value for `CC[C@@H](NC(=O)c1cn(-c2ccc(F)cc2F)c2nc(N3CC(C)OC3=O)ccc2c1=O)C(F)(F)F` (mixture of isomers) [Example 266, 1-(2,4-Difluorophenyl)-7-[5-methyl-2-oxo-1,3-oxazolidin-3-yl]-4-oxo-N-[(2R)-1,1,1-trifluorobutan-2-yl]-1,4-dihydro-1,8-naphthyridine-3-carboxamide] was 0.743 µM; that for `O=C(NC(c1ccc(F)cc1)C(F)(F)F)c1cn(-c2ccc(F)cc2F)c2nc(N3C[C@@H](O)CC3=O)ccc2c1=O` (mixture of isomers) [Example 273, 1-(2,4-Difluorophenyl)-7-[(4S)-4-hydroxy-2-oxopyrrolidin-1-yl]-4-oxo-N-[2,2,2-trifluoro-1-(4-fluorophenyl)ethyl]-1,4-dihydro-1,8-naphthyridine-3-carboxamide] was 0.044 µM.
Regarding `O=C(NC(c1cccc(Cl)c1)C(F)(F)F)c1cn(-c2ccc(F)cc2F)c2nc(N3C[C@@H](O)CC3=O)ccc2c1=O` (mixture of isomers) [Example 274, N-[1-(3-Chlorophenyl)-2,2,2-trifluoroethyl]-1-(2,4-difluorophenyl)-7-[(4S)-4-hydroxy-2-oxopyrrolidin-1-yl]-4-oxo-1,4-dihydro-1,8-naphthyridine-3-carboxamide], the EC50 is 0.049 µM.
Consider `O=C(NC12CC3CC(CC(C3)C1)C2)c1cn(-c2ccc(F)cc2F)c2nc(N3CCCC(O)C3)ccc2c1=O` (racemic) [Example 14, rac-1-(2,4-Difluorophenyl)-7-(3-hydroxypiperidin-1-yl)-4-oxo-N-(tricyclo[3.3.1.1^3,7]dec-1-yl)-1,4-dihydro-1,8-naphthyridine-3-carboxamide], for which a half-maximal response (EC50) required 0.082 µM.
In the case of `CCC(NC(=O)c1cn(-c2ccc(F)cc2F)c2nc(N3CC(CO)C3)ccc2c1=O)C(F)(F)F` (racemic) [Example 26, rac-1-(2,4-Difluorophenyl)-7-[3-(hydroxymethyl)azetidin-1-yl]-4-oxo-N-[1,1,1-trifluorobutan-2-yl]-1,4-dihydro-1,8-naphthyridine-3-carboxamide], the EC50 was determined as 0.164 µM.
The compound `CC(CC(F)(F)F)NC(=O)c1cn(-c2ccc(F)cc2F)c2nc(N(C)C)ccc2c1=O` (racemic) [Example 46, rac-1-(2,4-Difluorophenyl)-7-(dimethylamino)-4-oxo-N-[4,4,4-trifluorobutan-2-yl]-1,4-dihydro-1,8-naphthyridine-3-carboxamide] returned an EC50 of 0.127 µM. The EC50 values of the last two compounds are within 1.5-fold of each other.
Consider `CN(C)c1ccc2c(=O)c(C(=O)NC(c3ccccc3Cl)C(F)(F)F)cn(-c3ccc(F)cc3F)c2n1` (racemic) [Example 48, rac-N-[1-(2-Chlorophenyl)-2,2,2-trifluoroethyl]-1-(2,4-difluorophenyl)-7-(dimethylamino)-4-oxo-1,4-dihydro-1,8-naphthyridine-3-carboxamide], for which a half-maximal response (EC50) required 0.11 µM. This EC50 and that of the compound before are within 1.5-fold of each other.
On to `CCC(NC(=O)c1cn(-c2ccc(F)cc2F)c2nc(N3CCC(F)(F)C3)ccc2c1=O)C(F)(F)F` (racemic) [Example 74, rac-1-(2,4-Difluorophenyl)-7-(3,3-difluoropyrrolidin-1-yl)-4-oxo-N-[1,1,1-trifluorobutan-2-yl]-1,4-dihydro-1,8-naphthyridine-3-carboxamide], for which the EC50 stood at 0.058 µM.
